Series [1] deals with T1, Solute carrier organic anion transporter family member 1B3 (Homo sapiens, UniProt Q9NPD5).
T1 sequence (Q9NPD5 whole entry): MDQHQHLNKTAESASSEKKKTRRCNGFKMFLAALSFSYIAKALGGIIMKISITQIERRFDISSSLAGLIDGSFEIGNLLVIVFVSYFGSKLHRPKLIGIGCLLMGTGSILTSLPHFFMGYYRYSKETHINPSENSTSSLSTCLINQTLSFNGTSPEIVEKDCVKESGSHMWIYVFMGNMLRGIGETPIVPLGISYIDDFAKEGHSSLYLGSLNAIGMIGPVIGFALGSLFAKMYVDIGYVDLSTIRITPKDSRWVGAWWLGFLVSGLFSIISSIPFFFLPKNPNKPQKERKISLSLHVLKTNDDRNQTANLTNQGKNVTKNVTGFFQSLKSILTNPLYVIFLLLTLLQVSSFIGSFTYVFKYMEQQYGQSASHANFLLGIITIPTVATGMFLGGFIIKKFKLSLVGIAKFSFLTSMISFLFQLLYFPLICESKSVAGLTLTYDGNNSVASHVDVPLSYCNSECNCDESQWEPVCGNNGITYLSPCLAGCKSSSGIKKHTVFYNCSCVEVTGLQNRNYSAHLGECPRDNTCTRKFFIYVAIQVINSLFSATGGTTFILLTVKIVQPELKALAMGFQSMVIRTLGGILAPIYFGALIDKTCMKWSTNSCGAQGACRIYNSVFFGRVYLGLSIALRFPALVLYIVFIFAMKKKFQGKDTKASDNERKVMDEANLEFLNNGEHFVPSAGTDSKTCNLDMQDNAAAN
The following applies: chinese hamster, cho, 10 µM.

Series [2] addresses T2, Solute carrier organic anion transporter family member 1B1 (Homo sapiens, UniProt Q9Y6L6).
T2 sequence (Q9Y6L6 whole entry): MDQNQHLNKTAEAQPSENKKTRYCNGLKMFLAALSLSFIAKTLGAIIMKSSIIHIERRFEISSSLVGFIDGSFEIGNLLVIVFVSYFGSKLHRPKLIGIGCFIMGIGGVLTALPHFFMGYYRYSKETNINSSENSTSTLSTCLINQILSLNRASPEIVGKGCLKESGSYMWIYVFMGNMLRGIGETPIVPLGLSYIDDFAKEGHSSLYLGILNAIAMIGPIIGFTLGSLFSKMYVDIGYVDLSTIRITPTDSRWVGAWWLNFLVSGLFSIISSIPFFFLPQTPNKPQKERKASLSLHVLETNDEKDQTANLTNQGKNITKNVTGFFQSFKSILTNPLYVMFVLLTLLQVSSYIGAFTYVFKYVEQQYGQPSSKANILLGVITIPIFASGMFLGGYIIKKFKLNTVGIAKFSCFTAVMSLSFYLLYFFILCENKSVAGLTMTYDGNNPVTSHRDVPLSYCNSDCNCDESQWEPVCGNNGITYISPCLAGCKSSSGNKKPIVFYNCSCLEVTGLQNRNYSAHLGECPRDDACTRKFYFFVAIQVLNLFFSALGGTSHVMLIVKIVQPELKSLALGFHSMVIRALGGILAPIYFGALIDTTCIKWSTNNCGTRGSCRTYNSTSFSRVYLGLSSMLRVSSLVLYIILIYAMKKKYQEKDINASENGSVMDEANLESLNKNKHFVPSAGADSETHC
The following applies: chinese hamster, cho, 10 µM.

As to `CCOC(=O)C1C(C=C(C)C)C1(C)C` (stereo not drawn) [CHRYSANTHEMIC ACID, ETHYL ESTER], the residual activity in series [1] is recorded as 89.36%; in series [2], 83.17%.

In the case of `CC(C)=CC1C(C(=O)O)C1(C)C` (stereo not drawn) [CHRYSANTHEMIC ACID], the results for the residual activity in series [1] and in series [2] were 97.37% and 83.79%, respectively.

In the case of `CC(C)=CC1C(CO)C1(C)C` (stereo not drawn) [CHRYSANTHEMYL ALCOHOL], the residual activity in series [1] was found to be 105.2%; in series [2], 106.8%.

Turning to `COc1cc(OC)c2c(=O)cc(-c3ccccc3)oc2c1` [CHRYSIN DIMETHYL ETHER], the residual activity was 103.1% in series [1] and 112.1% in series [2].

Turning to `O=c1cc(-c2ccccc2)oc2cc(O)cc(O)c12` [CHRYSIN], the residual activity in series [1] is on record as 129.1%; in series [2], 115.4%.

`Cc1cc(O)c2c(c1)C(=O)c1cccc(O)c1C2=O` [CHRYSOPHANOL]: the results for the residual activity in series [1] and in series [2] were 93.35% and 128.6%, respectively.

Take `Oc1cc(O)c2c(c1)O[C@H](c1ccc(O)c(O)c1)[C@@H](O)C2` [CIANIDANOL]: the residual activity in series [1] was found to be 92.34%; in series [2] it was 72.87%.

With `Cc1cc(C2CCCCC2)n(O)c(=O)c1.NCCO` [CICLOPIROX OLAMINE], the figures for the residual activity in series [1] and in series [2] were 106% and 129.1%, respectively.

For `O=C1CCc2cc(OCCCCc3nnnn3C3CCCCC3)ccc2N1` [CILOSTAZOL], the residual activity in series [1] is on record as 98.73%; in series [2], 207.2%.

On to `CN/C(=N/CCSCc1nc[nH]c1C)NC#N` [CIMETIDINE], for which the values for the residual activity in series [1] and in series [2] were 96.42% and 120.2%, respectively.

In the case of `C=C[C@H]1CN2CC[C@H]1C[C@H]2[C@H](O)c1ccnc2ccccc12` [CINCHONIDINE], the residual activity in series [1] is 111.1%; in series [2], 86.58%.

On to `C=C[C@H]1C[N@@]2CC[C@H]1C[C@@H]2[C@@H](O)c1ccnc2ccccc12` [CINCHONINE], for which the residual activity in series [1] is 105.3%; in series [2] it was 122.3%.

Regarding `C(=C\c1ccccc1)/CN1CCN(C(c2ccccc2)c2ccccc2)CC1` [CINNARIZINE], the values for the residual activity in series [1] and in series [2] were 102.7% and 185.1%, respectively.

Turning to `O=C(O)c1cn(C2CC2)c2cc(N3CCNCC3)c(F)cc2c1=O` [CIPROFLOXACIN], the residual activity in series [1] came to 112.4%; in series [2], 105.3%.

Regarding `C[N+](C)(C)CCOP(=O)(O)OP(=O)([O-])OC[C@H]1O[C@@H](n2ccc(N)nc2=O)[C@H](O)[C@@H]1O` [CITICOLINE], the results for the residual activity in series [1] and in series [2] were 69.94% and 81.06%, respectively.

As for `CC(=O)NC1CCSC1=O` (stereo not drawn) [CITIOLONE], the residual activity in series [1] was 92.74%; in series [2], 110.6%.

In the case of `CC1=C2C(=CO[C@H](C)[C@H]2C)C(O)=C(C(=O)O)C1=O` [CITRININ], the residual activity in series [1] came to 67.29%; in series [2] it was 34.39%.

With `COc1cc(OC)c2ccc(=O)oc2c1` [CITROPTEN], the residual activity in series [1] is listed as 105.5%; in series [2], 81.95%.

Turning to `COc1cc(N)c(Cl)cc1C(=O)NC1CCN(Cc2ccccc2)CC1.O=C(O)/C=C\C(=O)O` [CLEBOPRIDE MALEATE], the residual activity in series [1] stood at 124.4%; in series [2], 84.15%.

As for `CC(C)(C)NCC(O)c1cc(Cl)c(N)c(Cl)c1.Cl` (stereo not drawn) [CLENBUTEROL HYDROCHLORIDE], the residual activity came to 99.43% in series [1] and 78.76% in series [2].

On to `C[N+]12CCC(CC1)C(OC(=O)C(O)(c1ccccc1)c1ccccc1)C2.[Br-]` (stereo not drawn) [CLIDINIUM BROMIDE], for which the residual activity in series [1] worked out at 92.46%; in series [2], 125.2%.

For the molecule `CCC[C@@H]1C[C@@H](C(=O)N[C@@H]([C@H]2O[C@H](SC)[C@H](O)[C@@H](O)[C@H]2O)[C@H](C)Cl)N(C)C1.Cl` [CLINDAMYCIN HYDROCHLORIDE], the results for the residual activity in series [1] and in series [2] were 115.2% and 69.97%, respectively.

Regarding `CCC(=O)O[C@]1(C(=O)CCl)[C@@H](C)C[C@H]2[C@@H]3CCC4=CC(=O)C=C[C@]4(C)[C@@]3(F)[C@@H](O)C[C@@]21C` [CLOBETASOL PROPIONATE], the residual activity in series [1] came out at 21.34%; in series [2] it was 20.25%.

Consider `CCOC(=O)C(C)(C)Oc1ccc(Cl)cc1` [CLOFIBRATE], for which the residual activity is 127.7% in series [1] and 114.7% in series [2].

Consider `CC(C)(Oc1ccc(Cl)cc1)C(=O)O` [CLOFIBRIC ACID], for which the figures for the residual activity in series [1] and in series [2] were 99.14% and 111.2%, respectively.

For the molecule `CC(C)(C)CC(C)(C)c1ccc(O)c(Cc2ccc(Cl)cc2Cl)c1` [CLOFOCTOL], the residual activity in series [1] was determined as 76.53%; in series [2] it was 77.9%.

For the molecule `CCN(CC)CCOc1ccc(C(=C(Cl)c2ccccc2)c2ccccc2)cc1` [CLOMIPHENE], the residual activity is reported as 126.3% in series [1] and 99.41% in series [2].

For the molecule `CN(C)CCCN1c2ccccc2CCc2ccc(Cl)cc21.Cl` [CLOMIPRAMINE HYDROCHLORIDE], the residual activity in series [1] is reported as 78.81%; in series [2], 43.58%.

For the molecule `Cl.Clc1cccc(Cl)c1NC1=NCCN1` [CLONIDINE HYDROCHLORIDE], the residual activity came out at 99.63% in series [1] and 73% in series [2].

As to `C[C@@H]1CCC[C@H](C)N1NC(=O)c1ccc(Cl)c(S(N)(=O)=O)c1` [CLOPAMIDE], the values for the residual activity in series [1] and in series [2] were 107.3% and 113.6%, respectively.

Regarding `Cl.Clc1ccc(C(OCCN2CCCCC2)c2ccccc2)cc1` (stereo not drawn) [CLOPERASTINE HYDROCLORIDE], the residual activity came to 89.01% in series [1] and 53.44% in series [2].

Regarding `COC(=O)[C@H](c1ccccc1Cl)N1CCc2sccc2C1.O=S(=O)(O)O` [CLOPIDOGREL BISULFATE], the values for the residual activity in series [1] and in series [2] were 96.14% and 145.3%, respectively.

Regarding `Cc1nc(C)c(Cl)c(O)c1Cl` [CLOPIDOL], the residual activity in series [1] was 91.88%; in series [2], 154.4%.

Turning to `CC(=O)OC1CCC23CC1(C)CCC2C(C)(C)CC3OC(C)=O` (stereo not drawn) [CLOVANEDIOL DIACETATE], the figures for the residual activity in series [1] and in series [2] were 85.3% and 109.5%, respectively.

Take `Cc1onc(-c2ccccc2Cl)c1C(=O)N[C@@H]1C(=O)N2[C@@H]1SC(C)(C)[C@@H]2C(=O)[O-].O.[Na+]` [CLOXACILLIN SODIUM]: the figures for the residual activity in series [1] and in series [2] were 63.22% and 47.3%, respectively.

Consider `Oc1ccc(Cl)c2cccnc12` [CLOXYQUIN], for which the residual activity was 93.36% in series [1] and 104% in series [2].

Take `CN1CCN(C2=Nc3cc(Cl)ccc3Nc3ccccc32)CC1` [CLOZAPINE]: the residual activity was found to be 93.38% in series [1] and 86.29% in series [2].

As for `COc1cc2c(c(OC)c1OC)-c1ccc(=O)c(O)cc1[C@@H](NC(C)=O)CC2` [COLCHICEINE], the figures for the residual activity in series [1] and in series [2] were 109.6% and 124%, respectively.

`COc1cc2c(c(OC)c1OC)-c1ccc(OC)c(=O)cc1[C@@H](NC(C)=O)CC2` [COLCHICINE]: the residual activity in series [1] stood at 101%; in series [2] it was 75.12%.

Values taken from ChEMBL document CHEMBL3039007, “Structure-based identification of OATP1B1/3 inhibitors” (Mol Pharmacol, 2013).
